Source: patent US20220220128A1, “HETEROCYCLIC COMPOUNDS AS KINASE INHIBITORS, COMPOSITIONS COMPRISING THE HETEROCYCLIC COMPOUND, AND METHODS OF USE THEREOF” (JS Innopharm (Shanghai) Ltd, priority 2019, published 2022)

Tests used:
[1] = molecular target: T1, human RET kinase (Homo sapiens, UniProt P07949); test: RET Kinase Assay (LanthaScreen TR-FRET enzymatic assay); type: biochemical; conditions: 7 nM RET, 23 μM ATP
T1 construct: purchased Carna 08-159
Method in brief: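 TR-FRET enzymatic read-out using 23 μM ATP, 3 μM FAM-P2 substrate and 7 nM human RET, after 15-min compound pretreatment at room temperature and a 1 h reaction at 28° C in HEPES pH 7.5 buffer. Percent of DMSO control fitted to nonlinear sigmoid curves for IC50.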

[2] = molecular target: T2, BAF3-KIF5B-RET cells (Homo sapiens, UniProt P07949); test: BAF3-KIF5B-RET Cell proliferation assay (CellTiter-Glo, 72 hours); type: cell-based; conditions: growth inhibition, read-out: BA/F3-KIF5B-RET Cellular activity
T2 construct: fused on or other part: P33176 (Kinesin-1 heavy chain)
T2 sequence (P07949 whole entry, change not shown, the tested form may be a part): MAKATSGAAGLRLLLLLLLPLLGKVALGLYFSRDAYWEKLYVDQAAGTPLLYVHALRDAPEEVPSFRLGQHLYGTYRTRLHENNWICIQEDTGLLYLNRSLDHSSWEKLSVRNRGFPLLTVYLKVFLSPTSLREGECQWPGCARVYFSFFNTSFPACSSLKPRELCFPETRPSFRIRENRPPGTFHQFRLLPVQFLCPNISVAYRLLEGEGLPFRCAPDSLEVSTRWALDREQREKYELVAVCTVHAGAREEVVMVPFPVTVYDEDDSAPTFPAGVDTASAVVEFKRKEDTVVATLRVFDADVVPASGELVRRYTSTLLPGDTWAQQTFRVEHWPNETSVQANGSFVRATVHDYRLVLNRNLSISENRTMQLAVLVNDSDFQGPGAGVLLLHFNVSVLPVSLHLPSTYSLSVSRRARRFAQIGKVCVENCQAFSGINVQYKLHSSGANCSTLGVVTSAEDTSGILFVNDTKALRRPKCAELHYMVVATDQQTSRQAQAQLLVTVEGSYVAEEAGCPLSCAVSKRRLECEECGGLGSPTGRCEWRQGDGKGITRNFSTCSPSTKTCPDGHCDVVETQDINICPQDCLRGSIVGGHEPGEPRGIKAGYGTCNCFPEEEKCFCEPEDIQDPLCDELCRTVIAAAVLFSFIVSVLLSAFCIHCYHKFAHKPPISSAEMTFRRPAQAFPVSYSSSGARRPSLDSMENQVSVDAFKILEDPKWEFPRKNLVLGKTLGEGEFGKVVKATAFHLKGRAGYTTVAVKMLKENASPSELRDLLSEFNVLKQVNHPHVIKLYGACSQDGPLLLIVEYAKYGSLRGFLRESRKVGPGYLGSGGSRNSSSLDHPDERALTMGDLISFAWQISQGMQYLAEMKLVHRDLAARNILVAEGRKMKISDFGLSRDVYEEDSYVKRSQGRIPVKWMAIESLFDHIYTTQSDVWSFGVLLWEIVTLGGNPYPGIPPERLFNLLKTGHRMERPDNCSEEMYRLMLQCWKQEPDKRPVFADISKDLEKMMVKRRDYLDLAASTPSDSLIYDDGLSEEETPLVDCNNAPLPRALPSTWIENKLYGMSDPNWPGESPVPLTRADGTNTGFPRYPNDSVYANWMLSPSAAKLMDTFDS
Method in brief: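 Cells seeded at 2,000/well in RPMI-1640 with 10% FBS and left 24 h at 37 °C, then exposed 72 h to nine compound levels (final 1 μM down to 0.00015 μM, 0.1% DMSO). CellTiter-Glo luminescence gave viability versus DMSO wells, from which IC50 was fitted.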

[3] = molecular target: T3, human KDR kinase (Homo sapiens, UniProt P35968); test: KDR Kinase Assay (LanthaScreen TR-FRET enzymatic assay); type: biochemical; conditions: 1.2 nM KDR, 92 μM ATP
T3 construct: purchased Carna 08-191
T3 sequence (P35968 20-1356): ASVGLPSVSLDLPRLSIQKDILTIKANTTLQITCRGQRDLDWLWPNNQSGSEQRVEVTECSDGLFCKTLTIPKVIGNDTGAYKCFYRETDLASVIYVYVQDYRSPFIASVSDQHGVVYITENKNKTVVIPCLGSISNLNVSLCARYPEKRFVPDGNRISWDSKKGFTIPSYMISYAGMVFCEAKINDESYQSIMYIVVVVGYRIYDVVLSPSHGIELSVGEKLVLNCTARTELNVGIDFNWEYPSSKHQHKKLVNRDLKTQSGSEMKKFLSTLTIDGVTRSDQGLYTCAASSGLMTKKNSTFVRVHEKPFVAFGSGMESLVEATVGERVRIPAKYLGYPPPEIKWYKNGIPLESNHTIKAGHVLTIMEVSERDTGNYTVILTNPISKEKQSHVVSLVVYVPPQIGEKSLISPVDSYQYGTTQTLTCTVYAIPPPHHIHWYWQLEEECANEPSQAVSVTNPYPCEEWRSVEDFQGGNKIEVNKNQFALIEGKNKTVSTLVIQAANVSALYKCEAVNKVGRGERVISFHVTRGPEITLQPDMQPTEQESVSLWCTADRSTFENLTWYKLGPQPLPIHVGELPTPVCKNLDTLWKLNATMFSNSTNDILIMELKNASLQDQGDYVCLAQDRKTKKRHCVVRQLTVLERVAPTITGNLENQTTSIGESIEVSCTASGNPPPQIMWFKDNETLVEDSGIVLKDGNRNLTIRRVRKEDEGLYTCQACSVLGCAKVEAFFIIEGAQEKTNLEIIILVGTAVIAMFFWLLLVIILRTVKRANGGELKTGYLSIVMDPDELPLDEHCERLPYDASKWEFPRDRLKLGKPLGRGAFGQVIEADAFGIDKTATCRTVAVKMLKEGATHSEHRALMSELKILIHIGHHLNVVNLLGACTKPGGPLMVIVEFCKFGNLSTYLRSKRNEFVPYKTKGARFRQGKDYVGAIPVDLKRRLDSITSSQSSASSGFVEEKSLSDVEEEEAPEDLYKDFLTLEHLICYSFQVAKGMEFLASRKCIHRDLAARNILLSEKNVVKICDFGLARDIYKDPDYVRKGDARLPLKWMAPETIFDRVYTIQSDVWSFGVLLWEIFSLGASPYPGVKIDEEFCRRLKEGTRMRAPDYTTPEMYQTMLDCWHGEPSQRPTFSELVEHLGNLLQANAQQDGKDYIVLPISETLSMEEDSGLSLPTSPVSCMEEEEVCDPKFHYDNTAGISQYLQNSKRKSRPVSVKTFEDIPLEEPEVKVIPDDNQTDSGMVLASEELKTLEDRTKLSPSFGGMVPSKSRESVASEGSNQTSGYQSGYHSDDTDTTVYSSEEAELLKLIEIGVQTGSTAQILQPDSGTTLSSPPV
Method in brief: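 TR-FRET enzymatic format: after 15-min room-temperature compound pretreatment, 1.2 nM human KDR phosphorylated 3 μM FAM-P22 with 92 μM ATP (HEPES pH 7.5, 28° C., one hour). Reactions were quenched with EDTA buffer. IC50 came from nonlinear sigmoid fits of percent-of-vehicle signal ratios.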

T1 sequence (P07949 29-1114): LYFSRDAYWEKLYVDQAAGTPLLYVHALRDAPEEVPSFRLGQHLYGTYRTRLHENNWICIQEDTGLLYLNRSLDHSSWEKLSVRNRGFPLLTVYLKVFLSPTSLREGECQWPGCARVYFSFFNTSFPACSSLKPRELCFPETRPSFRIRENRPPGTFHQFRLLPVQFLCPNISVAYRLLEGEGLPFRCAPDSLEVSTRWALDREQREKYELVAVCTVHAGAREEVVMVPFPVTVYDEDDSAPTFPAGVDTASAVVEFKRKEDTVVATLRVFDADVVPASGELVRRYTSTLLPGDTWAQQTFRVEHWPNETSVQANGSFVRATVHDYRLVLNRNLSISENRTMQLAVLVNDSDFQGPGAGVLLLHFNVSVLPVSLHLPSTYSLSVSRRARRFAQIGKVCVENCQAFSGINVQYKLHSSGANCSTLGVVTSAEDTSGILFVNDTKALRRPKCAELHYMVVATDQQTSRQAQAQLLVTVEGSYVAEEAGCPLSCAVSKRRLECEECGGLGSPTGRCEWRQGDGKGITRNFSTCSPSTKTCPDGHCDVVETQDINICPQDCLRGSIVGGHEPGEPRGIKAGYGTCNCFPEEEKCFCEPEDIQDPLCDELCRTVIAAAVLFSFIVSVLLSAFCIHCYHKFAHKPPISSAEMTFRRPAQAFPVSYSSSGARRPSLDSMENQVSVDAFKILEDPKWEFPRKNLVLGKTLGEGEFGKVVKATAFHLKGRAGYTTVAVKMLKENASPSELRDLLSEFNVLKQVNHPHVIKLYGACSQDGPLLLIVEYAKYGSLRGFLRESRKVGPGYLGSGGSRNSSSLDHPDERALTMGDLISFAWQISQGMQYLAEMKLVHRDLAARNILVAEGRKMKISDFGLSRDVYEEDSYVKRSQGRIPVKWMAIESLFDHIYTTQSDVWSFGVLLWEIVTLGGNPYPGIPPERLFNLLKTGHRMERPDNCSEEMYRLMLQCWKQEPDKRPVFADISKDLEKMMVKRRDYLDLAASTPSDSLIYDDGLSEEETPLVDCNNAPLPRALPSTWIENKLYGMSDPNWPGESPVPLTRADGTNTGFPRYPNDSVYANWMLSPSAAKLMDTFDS

SMILES | IC50 [1] | GI50 [2] | IC50 [3]
COc1ccc(C(=O)NC23CC4CC(C2)N(c2ccc(-c5cc(OCC(C)(C)O)cn6ncc(C#N)c56)cn2)C(C4)C3)cn1 [Example 138, N-((1R,3S,5s,7s)-2-(5-(3-cyano-6-(2-hydroxy-2-methylpropoxy)pyrazolo[1,5-a]pyridin-4-yl)pyridin-2-yl)-2-azaadamantan-5-yl)-6-methoxynicotinamide] | ≤ 10 nM | 10 to 50 nM | ≤ 10 nM
Cn1cc(-c2cc(-c3cnc(N4C[C@@H]5[C@@H](CNC(=O)c6ncccc6Cl)[C@@H]5C4)cn3)c3c(C#N)cnn3c2)cn1 [Example 153, 3-chloro-N-(((1R,5S,6s)-3-(5-(3-cyano-6-(1-methyl-1H-pyrazol-4-yl)pyrazolo[1,5-a]pyridin-4-yl)pyrazin-2-yl)-3-azabicyclo[3.1.0]hexan-6-yl)methyl)picolinamide] | ≤ 10 nM | ≤ 10 nM | 10 to 50 nM
Cn1cc(-c2cc(-c3cnc(N4C[C@@H]5[C@H](C4)[C@H]5NC(=O)c4ncccc4Cl)cn3)c3c(C#N)cnn3c2)cn1 [Example 102, 3-chloro-N-((1R,5S,6s)-3-(5-(3-cyano-6-(1-methyl-1H-pyrazol-4-yl)pyrazolo[1,5-a]pyridin-4-yl)pyrazin-2-yl)-3-azabicyclo[3.1.0]hexan-6-yl)picolinamide] | ≤ 10 nM | 10 to 50 nM | 50 to 100 nM
COc1ccc(CN[C@]2(C)C[C@H]3CN(c4ccc(-c5cc(-c6cnn(C)c6)cn6ncc(C#N)c56)cn4)C[C@H]3C2)cn1 [Example 152, 4-(6-((3aR,5s,6aS)-5-(((6-methoxypyridin-3-yl)methyl)amino)-5-methylhexahydrocyclopenta[c]pyrrol-2(1H)-yl)pyridin-3-yl)-6-(1-methyl-1H-pyrazol-4-yl)pyrazolo[1,5-a]pyridine-3-carbonitrile] | ≤ 10 nM | 50 to 100 nM | 10 to 50 nM
CC(C)(O)COc1cc(-c2cnc(N3C4CC5CC3CC(NC(=O)c3ncccc3F)(C5)C4)cn2)c2c(C#N)cnn2c1 [Example 168, N-((1R,3S,5s,7s)-2-(5-(3-cyano-6-(2-hydroxy-2-methylpropoxy)pyrazolo[1,5-a]pyridin-4-yl)pyrazin-2-yl)-2-azaadamantan-5-yl)-3-fluoropicolinamide] | ≤ 10 nM | 10 to 50 nM | 
Cn1ccc(-c2cc(-c3ccc(N4C[C@@H]5C[C@@](O)(Cc6ccccn6)C[C@@H]5C4)nc3)c3c(C#N)cnn3c2)n1 [Example 105, 4-(6-((3aR,5r,6aS)-5-hydroxy-5-(pyridin-2-ylmethyl)hexahydrocyclopenta[c]pyrrol-2(1H)-yl)pyridin-3-yl)-6-(1-methyl-1H-pyrazol-3-yl)pyrazolo[1,5-a]pyridine-3-carbonitrile] | ≤ 10 nM | 10 to 50 nM | 
COc1cccc(C(=O)N[C@]2(C)C[C@H]3CN(c4cnc(-c5cc(-c6cnn(C)c6)cn6ncc(C#N)c56)cn4)C[C@H]3C2)n1 [Example 146, N-((3aR,5s,6aS)-2-(5-(3-cyano-6-(1-methyl-1H-pyrazol-4-yl)pyrazolo[1,5-a]pyridin-4-yl)pyrazin-2-yl)-5-methyloctahydrocyclopenta[c]pyrrol-5-yl)-6-methoxypicolinamide] | ≤ 10 nM | ≤ 10 nM | 
CC(C)(O)COc1cc(-c2cnc(N3C4CC5CC3CC(NC=O)(C5)C4)cn2)c2c(C#N)cnn2c1 [Example 160, N-((1R,3S,5s,7s)-2-(5-(3-cyano-6-(2-hydroxy-2-methylpropoxy)pyrazolo[1,5-a]pyridin-4-yl)pyrazin-2-yl)-2-azaadamantan-5-yl)formamide] | 10 to 50 nM | > 100 nM | 
COc1ccc(C(=O)NC23CC4CC(C2)N(c2cnc(-c5cc(OCC(C)(C)O)cn6ncc(C#N)c56)cn2)C(C4)C3)cn1 [Example 166, N-((1R,3S,5s,7s)-2-(5-(3-cyano-6-(2-hydroxy-2-methylpropoxy)pyrazolo[1,5-a]pyridin-4-yl)pyrazin-2-yl)-2-azaadamantan-5-yl)-6-methoxynicotinamide] | ≤ 10 nM | 10 to 50 nM | 
